# From patent publication US9334246B2, “Substituted triazines for malaria treatment and chemoprophylaxis” (The United States of America, as represented by the …, priority 2013, dated 2016)
# Legend:
# Type in all cases: cell-based, Plasmodium falciparum
# P. falciparum D6 = experiment: Malaria SYBR Green Fluorescence Assay, D6 strain
# P. falciparum W2 = experiment: Malaria SYBR Green Fluorescence Assay, W2 strain
# P. falciparum C235 = experiment: Malaria SYBR Green Fluorescence Assay, C235 strain
D6 (SYBR Green Assay IC50) (P. falciparum D6) [µg/mL],W2 (SYBR Green Assay IC50) (P. falciparum W2) [µg/mL],C235 (SYBR Green Assay IC50) (P. falciparum C235) [µg/mL],SMILES
0.103,0.035,0.113,CCN1CCC(CNc2nc(-c3ccccc3)nc(C(Cl)(Cl)Cl)n2)CC1 [Cmpd 410]
0.291,0.073,0.31,COc1ccc(-c2nc(N3CCN(CCO)CC3)nc(C(Cl)(Cl)Cl)n2)c2ccccc12 [Cmpd 422]
0.676,0.459,0.877,CN1CCN(c2nc(-c3ccc(N4CCCC4)cc3)nc(C(Cl)(Cl)Cl)n2)CC1 [Cmpd 427]
0.791,0.607,0.912,CCN1CCCC(Nc2nc(-c3ccc(N4CCCC4)cc3)nc(C(Cl)(Cl)Cl)n2)C1 (stereo not drawn) [Cmpd 429]
0.076,0.044,0.145,Clc1cccc(-c2nc(NCCCN3CCCC3)nc(C(Cl)(Cl)Cl)n2)c1 [Cmpd 433]
0.155,0.019,0.158,CN1CCN(c2nc(-c3cccc(Cl)c3)nc(C(Cl)(Cl)Cl)n2)CC1 [Cmpd 436]
0.002,0.001,0.002,CN(C)CCCNc1nc(-c2ccc(S(C)(=O)=O)cc2)nc(C(Cl)(Cl)Cl)n1 [Cmpd 442]
0.145,0.043,0.161,CN(C)CCCNc1nc(-c2ccccc2)nc(C(Cl)(Cl)Cl)n1 [Cmpd 443]
0.151,0.116,0.189,CN(C)CCCNc1nc(-c2ccc(-c3ccccc3)cc2)nc(C(Cl)(Cl)Cl)n1 [Cmpd 445]
0.482,0.223,0.535,Cc1ccc(-c2ccccc2-c2nc(NCCCN(C)C)nc(C(Cl)(Cl)Cl)n2)cc1 [Cmpd 446]
0.035,0.007,0.04,CN(C)CCCNc1nc(-c2ccc(F)cc2)nc(C(Cl)(Cl)Cl)n1 [Cmpd 448]
0.239,0.091,0.252,COc1ccc(-c2nc(NCCCN(C)C)nc(C(Cl)(Cl)Cl)n2)cc1OC [Cmpd 450]
0.173,0.043,0.112,Cc1ccc(-c2nc(N3CCCN(CCO)CC3)nc(C(Cl)(Cl)Cl)n2)cc1 [Cmpd 453]
0.252,0.064,0.118,OCCN1CCCN(c2nc(-c3ccc(Cl)c(Cl)c3)nc(C(Cl)(Cl)Cl)n2)CC1 [Cmpd 454]
0.214,0.065,0.118,OCCN1CCCN(c2nc(-c3ccc(Cl)cc3)nc(C(Cl)(Cl)Cl)n2)CC1 [Cmpd 455]
0.207,0.091,0.136,OCCN1CCCN(c2nc(-c3cccc(C(F)(F)F)c3)nc(C(Cl)(Cl)Cl)n2)CC1 [Cmpd 456]
0.328,0.08,0.168,CSc1ccc(-c2nc(N3CCCN(CCO)CC3)nc(C(Cl)(Cl)Cl)n2)cc1 [Cmpd 457]
0.172,0.044,0.116,OCCN1CCCN(c2nc(-c3ccccc3)nc(C(Cl)(Cl)Cl)n2)CC1 [Cmpd 458]
0.163,0.108,0.153,OCCN1CCCN(c2nc(-c3ccc4ccccc4c3)nc(C(Cl)(Cl)Cl)n2)CC1 [Cmpd 459]
0.355,0.201,0.306,COc1ccc(-c2nc(N3CCCN(CCO)CC3)nc(C(Cl)(Cl)Cl)n2)c2ccccc12 [Cmpd 463]
0.449,0.051,0.244,Clc1cccc(-c2nc(NCCc3cnccn3)nc(C(Cl)(Cl)Cl)n2)c1 [Cmpd 472]
0.065,0.208,0.527,CN(CCc1ccccn1)c1nc(-c2cc(Cl)cc(Cl)c2)nc(C(Cl)(Cl)Cl)n1 [Cmpd 474]
0.057,0.023,0.035,COc1cc(OC)cc(-c2nc(NCCN3CCCC3)nc(C(Cl)(Cl)Cl)n2)c1 [Cmpd 476]

D6 (SYBR Green Assay IC50) (P. falciparum D6) [µg/mL],W2 (SYBR Green Assay IC50) (P. falciparum W2) [µg/mL],C235 (SYBR Green Assay IC50) (P. falciparum C235) [µg/mL],SMILES
0.077,0.023,0.041,COc1cc(OC)cc(-c2nc(NCCCN3CCCC3)nc(C(Cl)(Cl)Cl)n2)c1 [Cmpd 477]
0.042,0.014,0.022,COc1cc(OC)cc(-c2nc(NCCC3CCCN3C)nc(C(Cl)(Cl)Cl)n2)c1 (stereo not drawn) [Cmpd 478]
0.038,0.012,0.017,CCN(CC)CCNc1nc(-c2cc(OC)cc(OC)c2)nc(C(Cl)(Cl)Cl)n1 [Cmpd 479]
0.035,0.012,0.017,COc1cc(OC)cc(-c2nc(NCC(C)(C)N)nc(C(Cl)(Cl)Cl)n2)c1 [Cmpd 481]
0.094,0.024,0.045,COc1cccc(-c2nc(NCC3CCN(C(C)C)CC3)nc(C(Cl)(Cl)Cl)n2)c1 [Cmpd 485]
0.064,0.019,0.033,CC(C)N1CCC(CNc2nc(-c3ccc(Cl)cc3)nc(C(Cl)(Cl)Cl)n2)CC1 [Cmpd 487]
0.027,0.016,0.02,CC(C)N1CCC(CNc2nc(-c3ccc(C(C)(C)C)cc3)nc(C(Cl)(Cl)Cl)n2)CC1 [Cmpd 488]
0.014,0.008,0.01,CC(C)N1CCC(CNc2nc(-c3cccc(C(F)(F)F)c3)nc(C(Cl)(Cl)Cl)n2)CC1 [Cmpd 489]
0.091,0.049,0.067,CSc1ccc(-c2nc(NCC3CCN(C(C)C)CC3)nc(C(Cl)(Cl)Cl)n2)cc1 [Cmpd 490]
0.048,0.018,0.034,CC(C)N1CCC(CNc2nc(-c3ccc(S(C)(=O)=O)cc3)nc(C(Cl)(Cl)Cl)n2)CC1 [Cmpd 491]
0.095,0.033,0.052,CC(C)N1CCC(CNc2nc(-c3ccc(C(Cl)(Cl)Cl)cc3)nc(C(Cl)(Cl)Cl)n2)CC1 [Cmpd 492]
0.038,0.018,0.023,CC(C)N1CCC(CNc2nc(-c3ccc4ccccc4c3)nc(C(Cl)(Cl)Cl)n2)CC1 [Cmpd 494]
0.036,0.01,0.013,CC(C)N1CCC(CNc2nc(-c3cc(Cl)cc(Cl)c3)nc(C(Cl)(Cl)Cl)n2)CC1 [Cmpd 495]
0.029,0.015,0.014,CC(C)N1CCC(CNc2nc(-c3ccc(-c4ccccc4)cc3)nc(C(Cl)(Cl)Cl)n2)CC1 [Cmpd 496]
0.913,0.176,0.469,CC(C)N1CCC(CNc2nc(-c3ccccc3[N+](=O)[O-])nc(C(Cl)(Cl)Cl)n2)CC1 [Cmpd 497]
0.247,0.066,0.125,COc1ccc(-c2nc(NCC3CCN(C(C)C)CC3)nc(C(Cl)(Cl)Cl)n2)c2ccccc12 [Cmpd 498]
0.362,0.094,0.241,COc1ccc(-c2nc(NCC3CCN(C(C)C)CC3)nc(C(Cl)(Cl)Cl)n2)cc1OC [Cmpd 501]
0.127,0.028,0.052,COc1cc(OC)cc(-c2nc(NCC3CCN(C(C)C)CC3)nc(C(Cl)(Cl)Cl)n2)c1 [Cmpd 502]
0.044,0.014,0.026,Cc1ccc(-c2nc(NCC3CCN(C)CC3)nc(C(Cl)(Cl)Cl)n2)cc1 [Cmpd 503]
0.029,0.017,0.02,CN1CCC(CNc2nc(-c3ccc(Cl)c(Cl)c3)nc(C(Cl)(Cl)Cl)n2)CC1 [Cmpd 505]
0.043,0.039,0.043,CN1CCC(CNc2nc(-c3ccc(C(C)(C)C)cc3)nc(C(Cl)(Cl)Cl)n2)CC1 [Cmpd 507]
0.034,0.013,0.022,CN1CCC(CNc2nc(-c3cccc(C(F)(F)F)c3)nc(C(Cl)(Cl)Cl)n2)CC1 [Cmpd 508]
0.294,0.098,0.167,CSc1ccc(-c2nc(NCC3CCN(C)CC3)nc(C(Cl)(Cl)Cl)n2)cc1 [Cmpd 509]
